# Columns and labels:
# [1] = DMT plasma concentrations after intravenous bolus, pilot study (Timmermann et al., 2019); assay type: in vivo; conditions: human, consistent with measurements of Timmermann 2019 and Strassman 1994, may represent redistribution, read-out: approximate elimination half-life
# Method: A more recent pilot study also assessed plasma concentrations of DMT after intravenous bolus administration of 7-20 mg of DMT in a small number of subjects (Timmermann et al., 2019). DMT blood concentrations were approximately 56 ng/mL 2 minutes after administration of 14 mg (corresponding to approximately 0.2 mg/kg) (Timmermann et al., 2019) in line with the aforementioned data by Strassman (Strassman et al., 1994). The measurements from both studies are consistent with an approximate elimination half-life of 5-10 minutes. However, this may represent rapid redistribution and metabolism and may therefore be shorter than the true elimination half-life (see above). The study only used a bolus, so it is different from the present invention. The above descriptions illustrate that there is limited information on the effects of intravenous DMT administration. However, no study has validly determined the elimination half-life of DMT and other pharmacokinetic parameters and this will be done within the current invention to have better and rational basis on dosing.
# 5-HT1 receptor = molecular target: T1, 5-HT1 receptor (Homo sapiens, UniProt P08908); conditions: in contrast to psilocybin; cited from earlier work
# T1 sequence (P08908 1-422): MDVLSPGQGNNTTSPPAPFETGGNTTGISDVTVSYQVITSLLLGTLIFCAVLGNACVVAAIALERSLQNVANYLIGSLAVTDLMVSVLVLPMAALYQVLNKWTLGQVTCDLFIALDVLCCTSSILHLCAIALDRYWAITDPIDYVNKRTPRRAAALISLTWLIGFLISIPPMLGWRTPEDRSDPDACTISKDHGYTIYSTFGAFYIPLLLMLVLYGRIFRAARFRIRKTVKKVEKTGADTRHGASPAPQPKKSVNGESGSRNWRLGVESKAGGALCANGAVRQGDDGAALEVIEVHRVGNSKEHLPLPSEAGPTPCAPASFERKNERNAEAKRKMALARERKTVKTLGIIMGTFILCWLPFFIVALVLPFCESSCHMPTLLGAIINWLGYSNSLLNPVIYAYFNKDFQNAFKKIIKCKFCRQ
# [2] = test system: healthy subjects with previous hallucinogen experience; conditions: cited from earlier work
# [3] = molecular target: T2, monoamine oxidase (MAO) A (Homo sapiens, UniProt P21397); conditions: cited from earlier work
# T2 sequence (P21397 1-527): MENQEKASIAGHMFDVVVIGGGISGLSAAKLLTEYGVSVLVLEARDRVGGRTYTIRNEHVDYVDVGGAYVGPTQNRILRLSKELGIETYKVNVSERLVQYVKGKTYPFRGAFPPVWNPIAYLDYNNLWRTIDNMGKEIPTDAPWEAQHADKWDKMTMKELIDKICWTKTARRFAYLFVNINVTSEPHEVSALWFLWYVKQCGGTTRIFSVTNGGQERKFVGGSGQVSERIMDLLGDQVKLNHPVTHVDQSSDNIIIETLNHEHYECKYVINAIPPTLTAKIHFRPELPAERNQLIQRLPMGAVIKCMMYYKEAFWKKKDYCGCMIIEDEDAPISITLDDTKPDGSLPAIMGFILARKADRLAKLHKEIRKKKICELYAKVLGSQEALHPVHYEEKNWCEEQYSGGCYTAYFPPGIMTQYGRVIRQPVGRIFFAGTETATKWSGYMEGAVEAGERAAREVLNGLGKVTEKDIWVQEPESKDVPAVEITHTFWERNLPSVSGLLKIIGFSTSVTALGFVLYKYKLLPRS
# serotonin transporter = serotonin transporter (Homo sapiens, UniProt P31645); conditions: in contrast to LSD; cited from earlier work
# Chain of serotonin transporter (P31645 whole entry, the tested form may be a part): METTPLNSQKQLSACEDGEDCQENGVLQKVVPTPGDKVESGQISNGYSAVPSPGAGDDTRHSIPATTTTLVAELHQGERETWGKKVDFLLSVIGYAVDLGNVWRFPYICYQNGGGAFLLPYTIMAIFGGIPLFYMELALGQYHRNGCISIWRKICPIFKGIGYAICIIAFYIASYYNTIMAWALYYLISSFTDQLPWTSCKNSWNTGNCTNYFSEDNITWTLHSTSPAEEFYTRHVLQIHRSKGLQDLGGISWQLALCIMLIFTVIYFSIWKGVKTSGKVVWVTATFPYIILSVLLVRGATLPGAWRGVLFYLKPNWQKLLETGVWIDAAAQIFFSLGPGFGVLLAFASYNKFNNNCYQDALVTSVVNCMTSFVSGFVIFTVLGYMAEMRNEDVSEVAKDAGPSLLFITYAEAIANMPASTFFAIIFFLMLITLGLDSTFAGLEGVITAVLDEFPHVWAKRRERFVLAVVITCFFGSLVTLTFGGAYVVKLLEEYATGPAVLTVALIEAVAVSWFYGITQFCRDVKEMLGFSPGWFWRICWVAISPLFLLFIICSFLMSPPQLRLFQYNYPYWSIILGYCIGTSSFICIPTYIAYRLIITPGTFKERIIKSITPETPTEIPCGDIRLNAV
# [4] = Plasma levels of DMT after intravenous bolus plus continuous infusion (Gouzoulis-Mayfrank et al., 2005); assay type: in vivo; conditions: human
# Method: Previous research already documented the rapid action of DMT and its safety (Gouzoulis-Mayfrank et al., 2005). A study included 15 healthy volunteers. DMT was given at either a low or a high dose. The low dose consisted of a bolus injection of 0.2 mg/kg (˜15 mg) over 5 minutes followed by a break of one minute, followed by a continuous infusion with 0.015 mg/kg (˜1 mg)/min over 84 minutes. The high dose consisted of a bolus injection of 0.3 mg/kg (˜23 mg) and a continuous infusion with 0.02 mg/kg (˜1.5 mg)/min. The two doses were administered on the same day with a two-hour break between the end of the first and the beginning of the second administration in a single-blind design. Subjective effects were assessed and plasma concentrations of DMT were determined during the perfusion and thereafter. Effects of both doses included vivid alterations of visual, auditory, and tactile perception. […] Most subjects tended to report their experiences during the experiment spontaneously, and they were interested in interpersonal interactions. Mood varied from anxious and tense to expansive and euphoric with mostly vivid verbal, mimic, and psychomotor expression of emotions. Ego-control and insight into the experimental nature of the experience were preserved at the low dose. […]
# healthy subjects = assay: Example 1 clinical study: blood pressure and heart rate; conditions: perfusion with or without bolus
# [5] = 25 mg (0.3 mg/kg) bolus over 30 seconds; cited from earlier work
compound,measurement,setting,value
"CN(C)CCc1c[nH]c2ccccc12 [DMT, N,N-dimethyltryptamine]",half-life,[1],5 to 10 min
same,affinity to the 5-HT1 receptor,5-HT1 receptor,greater affinity
same,Average heart rate,[2]; at 2 minutes,100 beats/min
same,mean arterial blood pressure,[2]; at 2 minutes,108 mm Hg
same,"blood pressure, heart rate, pupil size, body core temperature, blood levels of ACTH, cortisol, PRL, β-endorphin and growth hormone",[2]; iv bolus,increased
same,metabolism by monoamine oxidase (MAO) A,[3],rapidly metabolized
same,interaction with the serotonin transporter,serotonin transporter,interacts
same,half-life,"[4]; in line with subjective effects and Strassman data, read-out: true half-life (likely)",~10 min
same,half-life,"[4]; indicated by the very crude and possibly invalid plasma data, read-out: elimination half-life",~30 min
same,effect on blood pressure and heart rate,healthy subjects,only moderately and transiently increased blood pressure
same,effect site concentration (simulated),[5],over 100 ng/mL
same,initial plasma concentration spike (simulated),[5],over 200 ng/mL
